How the values were obtained:
SIK1 = target: T1, SIK1 (Homo sapiens, UniProt P57059); experiment: ADP-Glo kinase assay, SIK1; type: biochemical; settings: ADP-Glo SIK kinase assay
T1 construct: purchased Carna Biosciences 02-131
Summary of the method: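 Enzyme–substrate mix was started with ATP and incubated 120 min at RT. ADP formed was quantified by ADP-Glo: 40 min ATP depletion, then 30 min detection reagent converting ADP to ATP for luciferase luminescence, which rises with kinase activity. Controls: 1% DMSO and 10 μM staurosporine (final).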

[1] = system: LPS-induced TNFα in monocyte-derived macrophages (MdM); experiment: MdM assay: LPS-triggered TNFα (ELISA); type: cell-based, human; settings: Homo sapiens, Macrophage, 20 h, monocyte-derived macrophages, LPS 200 ng/mL, supernatant after 20 h; read-out: TNFα EC50
Protocol: This assay evaluates illustrative compounds of the invention for their inhibition of LPS-induced TNFα and LPS triggered IL-10 secretion in monocyte-derived macrophages.
PBMCs are isolated from human blood samples (buffycoats). The buffy coat is aseptically transferred into a 50 mL Falcon tube, and diluted 1/2 in PBS. Falcon tubes are filled with 20 mL Lymphoprep™, on top of which 25 mL of the buffy coat is carefully added, tubes are centrifuged for 35 min at 400 g in temperature controlled centrifuge, without brake, at 25° C. PBMCs are aspirated from the white interface layer between sample and Lymphoprep™. PBMCs are washed five times in PBS.
PBMCs are centrifuged at 300×g for 10 min and resuspended at a density of 1.0*10^7 cells/80 μL Miltenyi buffer (PBS, pH 7.4, 1% FBS, 2 mM EDTA).
Starting from this point of the protocol all steps are performed on ice. 20 μL of CD14+ micro-beads are added per 1.0*10^7 cells, the tube is mixed and incubated for 15 min in the fridge at 4° C. Cell suspension volume is adjusted to total volume of 100 mL using Miltenyi buffer, mixed gently and subsequently centrifuged for 10 min at 300×g. Supernantant is discarded and cell pellet is resuspended in 12 mL of Miltenyi buffer.
Four LS columns are placed in the MACS Separator (magnet) from Miltenyi Biotec, and are prewet by rinsing with 3 mL of MACS buffer per column. Three mL of cell suspension is added onto the column (max 1*10^8 of labelled cells/column), and columns are subsequently washed 3 times with 3 mL of Miltenyi buffer.
The columns are removed from the magnets, and 5 mL of Miltenyi buffer are added to the column to flush out the CD14+ fraction by pushing the plunger into the column. The flushed fractions are collected in a fresh 50 mL Falcon and volume is adjusted to 30 mL using Miltenyi buffer, cells are centrifuged for 10 min at 300×g. The obtained cell pellet is resuspended in 10 mL RPMI w/o FBS, and cell density is determined using a hematologic analyser (Sysmex XS-500i).
On day 10, MdMs are triggered and compound is added.
A compound dilution plate is made in 100% DMSO by 3-fold dilution of 10 mM stock solution. An intermediate dilution plate (10× final concentration) is made by diluting the compound dilution plate 50-fold in RPMI medium.
Medium is carefully removed from cell plates using multichannel pipette, and replaced by 80 μL fresh medium. 10 μL of the 10× final concentration compound is added to the cells and incubated for 1 hour at 37° C. before addition of trigger. No trigger conditions/trigger conditions are spiked with equal final DMSO concentrations of 0.2% DMSO. 10 μL of 10×LPS (final conc. 200 ng/mL) solution are added to all wells except for the ‘no trigger wells’ where 10 μL medium is added. Supernatant is collected after 2 h (IL-10 determination) and after 20 h (TNFα determination) of LPS triggering.
The plate is then washed once with PBST (PBS+0.05% Tween20) and once with PBS followed by the addition of 100 μL of blocking buffer (1% Bovine Serum Albumin (BSA)−5% Sucrose) and plates are sealed and incubated for at least 4 h at RT. After washing the plate once with PBST and once with PBS, 40 μL of standard or sample are added (TNFα standard curve is prepared using a 1/2 serial dilution starting from […]; dilutions are made in dilution buffer (PBS+1% BSA)). Plates are washed twice with PBST, and once with PBS, after which 35 μL of the detection antibody is added (final concentration 0.25 μg/mL diluted in dilution buffer) and plates are incubated for at least 2 h at RT. Plates are washed twice with PBST, and once with PBS, where after 35 μL of Strep-HRP conjugate (0.5 μg/mL final concentration diluted in dilution buffer) is added. Plates are incubated in the dark, at RT for at least 45 min but no longer than 1 hour. Plates are washed twice with PBST, and once with PBS.

SIK3 = target: T2, SIK3 (Homo sapiens, UniProt Q9Y2K2); experiment: ADP-Glo kinase assay, SIK3; type: biochemical; settings: ADP-Glo SIK kinase assay
T2 construct: purchased SignalChem S12-11G-100
Summary of the method: (§1)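 ADP-Glo, RT throughout. Enz/substrate + ATP, 120 min; ADP-Glo reagent 40 min (ATP depletion); detection reagent 30 min; luminescence read. Neg ctrl 1% DMSO, pos ctrl 10 μM staurosporine, final concs.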

SIK2 = target: T3, SIK2 (Homo sapiens, UniProt Q9H0K1); experiment: ADP-Glo kinase assay, SIK2; type: biochemical; settings: ADP-Glo SIK kinase assay
T3 construct: purchased ThermoFisher Scientific PV4792
Summary of the method: as §1

T3 sequence (Q9H0K1 whole entry): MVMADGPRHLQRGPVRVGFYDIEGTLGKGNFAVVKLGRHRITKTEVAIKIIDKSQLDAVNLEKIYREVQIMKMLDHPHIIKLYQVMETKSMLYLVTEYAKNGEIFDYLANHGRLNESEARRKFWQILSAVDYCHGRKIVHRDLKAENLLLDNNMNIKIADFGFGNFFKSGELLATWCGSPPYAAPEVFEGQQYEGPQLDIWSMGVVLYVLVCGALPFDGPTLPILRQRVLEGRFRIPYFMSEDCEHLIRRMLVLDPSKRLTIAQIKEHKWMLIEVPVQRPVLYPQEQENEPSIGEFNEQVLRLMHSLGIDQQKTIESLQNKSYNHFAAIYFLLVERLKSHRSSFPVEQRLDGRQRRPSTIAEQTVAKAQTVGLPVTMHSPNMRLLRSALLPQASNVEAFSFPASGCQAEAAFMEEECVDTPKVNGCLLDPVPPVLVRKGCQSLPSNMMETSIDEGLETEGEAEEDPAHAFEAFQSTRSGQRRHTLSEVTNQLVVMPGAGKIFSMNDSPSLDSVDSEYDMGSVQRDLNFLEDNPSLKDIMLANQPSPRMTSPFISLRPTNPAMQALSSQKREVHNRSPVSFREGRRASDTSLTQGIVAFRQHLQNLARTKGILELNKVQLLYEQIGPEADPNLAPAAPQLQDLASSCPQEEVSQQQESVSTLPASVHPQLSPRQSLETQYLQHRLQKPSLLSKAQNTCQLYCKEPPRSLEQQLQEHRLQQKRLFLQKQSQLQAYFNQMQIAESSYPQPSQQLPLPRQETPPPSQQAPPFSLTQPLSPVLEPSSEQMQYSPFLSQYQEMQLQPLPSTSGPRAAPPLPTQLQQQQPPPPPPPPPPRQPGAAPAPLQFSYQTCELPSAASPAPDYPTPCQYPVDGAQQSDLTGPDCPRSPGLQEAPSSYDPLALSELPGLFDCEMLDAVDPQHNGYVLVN
T1 sequence (P57059 whole entry): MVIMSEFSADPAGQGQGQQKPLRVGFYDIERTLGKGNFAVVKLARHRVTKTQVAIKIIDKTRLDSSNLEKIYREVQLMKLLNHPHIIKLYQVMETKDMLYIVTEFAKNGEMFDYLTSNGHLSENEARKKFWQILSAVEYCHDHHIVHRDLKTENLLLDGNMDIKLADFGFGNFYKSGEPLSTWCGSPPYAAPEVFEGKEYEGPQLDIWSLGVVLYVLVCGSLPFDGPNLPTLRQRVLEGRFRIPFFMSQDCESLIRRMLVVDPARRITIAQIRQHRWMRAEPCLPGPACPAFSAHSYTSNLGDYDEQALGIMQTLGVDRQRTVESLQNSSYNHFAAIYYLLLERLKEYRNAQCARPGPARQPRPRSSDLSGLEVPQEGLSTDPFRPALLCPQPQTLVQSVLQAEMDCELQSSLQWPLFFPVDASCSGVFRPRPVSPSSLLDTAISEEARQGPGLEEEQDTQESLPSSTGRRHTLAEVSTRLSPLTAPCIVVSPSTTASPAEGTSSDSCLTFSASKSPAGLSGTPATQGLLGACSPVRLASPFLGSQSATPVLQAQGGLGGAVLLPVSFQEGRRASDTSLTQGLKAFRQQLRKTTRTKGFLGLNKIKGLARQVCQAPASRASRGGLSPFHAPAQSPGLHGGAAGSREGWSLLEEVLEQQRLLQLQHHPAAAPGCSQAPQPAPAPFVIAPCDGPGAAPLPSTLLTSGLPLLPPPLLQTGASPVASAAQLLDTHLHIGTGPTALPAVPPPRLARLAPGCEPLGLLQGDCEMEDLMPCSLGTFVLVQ
T2 sequence (Q9Y2K2 whole entry): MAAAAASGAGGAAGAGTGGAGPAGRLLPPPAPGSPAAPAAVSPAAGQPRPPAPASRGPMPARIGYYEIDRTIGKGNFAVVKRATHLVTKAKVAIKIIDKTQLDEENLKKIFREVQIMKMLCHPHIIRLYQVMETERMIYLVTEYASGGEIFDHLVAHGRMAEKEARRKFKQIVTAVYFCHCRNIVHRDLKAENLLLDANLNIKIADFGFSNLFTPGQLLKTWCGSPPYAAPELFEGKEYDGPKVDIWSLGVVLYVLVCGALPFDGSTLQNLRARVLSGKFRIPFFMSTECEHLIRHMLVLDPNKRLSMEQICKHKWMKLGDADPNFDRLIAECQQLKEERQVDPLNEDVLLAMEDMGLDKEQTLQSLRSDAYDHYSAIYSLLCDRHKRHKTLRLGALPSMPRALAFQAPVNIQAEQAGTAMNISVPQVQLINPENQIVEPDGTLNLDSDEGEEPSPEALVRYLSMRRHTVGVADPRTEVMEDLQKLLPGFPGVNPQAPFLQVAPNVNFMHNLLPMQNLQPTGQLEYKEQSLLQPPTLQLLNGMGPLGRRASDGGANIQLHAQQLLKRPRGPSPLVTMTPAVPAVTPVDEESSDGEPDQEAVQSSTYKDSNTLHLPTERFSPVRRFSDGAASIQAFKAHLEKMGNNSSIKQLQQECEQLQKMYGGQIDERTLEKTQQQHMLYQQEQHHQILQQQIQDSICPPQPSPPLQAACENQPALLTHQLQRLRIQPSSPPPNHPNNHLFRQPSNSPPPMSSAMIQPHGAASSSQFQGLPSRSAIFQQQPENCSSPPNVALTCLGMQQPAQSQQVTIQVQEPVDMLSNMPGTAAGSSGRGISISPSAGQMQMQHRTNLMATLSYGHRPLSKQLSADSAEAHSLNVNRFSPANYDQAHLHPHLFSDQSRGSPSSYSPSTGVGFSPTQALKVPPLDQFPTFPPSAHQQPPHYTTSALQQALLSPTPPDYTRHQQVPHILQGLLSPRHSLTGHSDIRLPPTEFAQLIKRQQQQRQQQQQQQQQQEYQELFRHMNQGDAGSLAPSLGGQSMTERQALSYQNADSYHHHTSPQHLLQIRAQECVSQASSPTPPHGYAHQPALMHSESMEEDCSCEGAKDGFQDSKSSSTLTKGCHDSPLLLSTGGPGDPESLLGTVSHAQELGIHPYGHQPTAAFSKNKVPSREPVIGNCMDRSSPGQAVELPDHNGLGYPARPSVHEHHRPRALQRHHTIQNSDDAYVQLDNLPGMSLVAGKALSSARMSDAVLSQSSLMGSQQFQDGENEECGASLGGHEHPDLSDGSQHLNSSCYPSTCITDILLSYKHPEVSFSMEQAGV

IC50 (SIK1) | EC50 [1] | IC50 (SIK3) | IC50 (SIK2) | Structure (SMILES)
10 to 100 nM | 100 to 1000 nM | 0.01 to 10 nM | 0.01 to 10 nM | COc1cc(-c2cnc3cc(OCCN4CCOCC4)ccn23)cc2c1C(=O)NCC2 [Cpd 217, 8-methoxy-6-[7-(2-morpholinoethoxy)imidazo [1,2-a]pyridin-3-yl]-3,4-dihydro-2H-isoquinolin-1-one]
10 to 100 nM | 0.1 to 100 nM | 0.01 to 10 nM | 0.01 to 10 nM | COCC1CN(CCOc2ccn3c(-c4cc(OC)c(C(=O)NC5CC5)c(OC(F)F)c4)cnc3c2)CCO1 (centres unmarked) [compound 158, N-cyclopropyl-2-(difluoromethoxy)-6-methoxy-4-[7-[2-[2-(methoxymethyl)morpholin-4-yl]ethoxy]imidazo[1,2-a]pyridin-3-yl]benzamide]
10 to 100 nM | 100 to 1000 nM | 0.01 to 10 nM | 0.01 to 10 nM | COc1cc(-c2cnc3cc(OCCN4CCOCC4)ccn23)cc(OC(F)F)c1C(=O)NCC(F)(F)F [compound 230, 2-(difluoromethoxy)-6-methoxy-4-[7-(2-morpholinoethoxy)imidazo [1,2-a]pyridin-3-yl]-N-(2,2,2-trifluoroethyl)benzamide]
100 to 500 nM | 100 to 1000 nM | 0.01 to 10 nM | 0.01 to 10 nM | COc1cc(-c2cnc3cc(OCc4nccn4C)ccn23)cc(OC(F)F)c1C(=O)NC1CC1 [compound 110, N-cyclopropyl-2-(difluoromethoxy)-6-methoxy-4-[7-[(1-methylimidazol-2-yl)methoxy]imidazo[1,2-a]pyridin-3-yl]benzamide]
10 to 100 nM | 100 to 1000 nM | 0.01 to 10 nM | 0.01 to 10 nM | COc1cc(-c2cnc3cc(OC[C@@H]4CCCN4C)ccn23)cc(OC(F)F)c1C(=O)NC1CC1 [compound 79, N-cyclopropyl-2-(difluoromethoxy)-6-methoxy-4-[7-[[(2S)-1-methylpyrrolidin-2-yl]methoxy]imidazo[1,2-a]pyridin-3-yl]benzamide]
10 to 100 nM | 100 to 1000 nM | 0.01 to 10 nM | 0.01 to 10 nM | COc1cc(-c2cnc3cc(OCCN4CC[C@H](F)C4)ccn23)cc(OC(F)F)c1C(=O)NC1CC1 [Cpd 160, N-cyclopropyl-2-(difluoromethoxy)-4-[7-[2-[(3S)-3-fluoropyrrolidin-1-yl]ethoxy]imidazo[1,2-a]pyridin-3-yl]-6-methoxy-benzamide]
10 to 100 nM | 100 to 1000 nM | 0.01 to 10 nM | 0.01 to 10 nM | COc1cc(-c2cnc3cc(OC[C@H]4COCCO4)ccn23)cc(OC(F)F)c1C(=O)NC1CC1 [compound 50, N-cyclopropyl-2-(difluoromethoxy)-4-[7-[[(2R)-1,4-dioxan-2-yl]methoxy]imidazo[1,2-a]pyridin-3-yl]-6-methoxy-benzamide]
100 to 500 nM | 100 to 1000 nM | 0.01 to 10 nM | 10 to 100 nM | COc1cc(-c2cnc3cc(OCc4ccnn4C)ccn23)cc2c1C(=O)N(CC(F)(F)F)CC2 [compound 84, 8-methoxy-6-[7-[(2-methylpyrazol-3-yl)methoxy]imidazo[1,2-a]pyridin-3-yl]-2-(2,2,2-trifluoroethyl)-3,4-dihydroisoquinolin-1-one]
100 to 500 nM | 100 to 1000 nM | 0.01 to 10 nM | 0.01 to 10 nM | O=C1c2c(cc(-c3cnc4cc(OCCN5CCOCC5)ccn34)cc2OC(F)F)CCN1C1CC1 [Cpd 224, 2-cyclopropyl-8-(difluoromethoxy)-6-[7-(2-morpholinoethoxy)imidazo [1,2-a]pyridin-3-yl]-3,4-dihydroisoquinolin-1-one]
10 to 100 nM | 1000 to 5000 nM | 0.01 to 10 nM | 10 to 100 nM | COc1cc(-c2cnc3cc(OC4CC5CCC4C5)ccn23)cc(OC(F)F)c1C(=O)NC1CC1 (centres unmarked) [compound 58, N-cyclopropyl-2-(difluoromethoxy)-6-methoxy-4-(7-norbornan-2-yloxyimidazo[1,2-a]pyridin-3-yl)benzamide]
10 to 100 nM | 100 to 1000 nM | 0.01 to 10 nM | 0.01 to 10 nM | CNc1cc(-c2cnc3cc(OCCN(C)C)ccn23)cc(OC(F)F)c1C(=O)NC1CC1 [compound 147, N-cyclopropyl-2-(difluoromethoxy)-4-[7-[2-(dimethylamino)ethoxy]imidazo[1,2-a]pyridin-3-yl]-6-(methylamino)benzamide]
